We go through 6 compounds from DBAASP.

The MIC is the lowest concentration that inhibits growth of the organism.

Among the test systems are Beauveria sp.; Saccharomyces cerevisiae; Bacillus sp. DM-1; Escherichia coli BL21AI; Candida albicans.
Holding throughout (assay): ≥ marks a high value that may be exact or a test limit, other limits are often not marked, values filed in µg/mL are converted to µM
The subject of assay [1] is Micrococcus luteus CGMCC 1.0290.
Assay [2] relates to Bacillus megaterium CGMCC 1.0459.
The test system of assay [3] is Bacillus subtilis CGMCC 1.2428.
Assay [4] deals with Micrococcus luteus ATCC 10240.
Assay [5] concerns Candida albicans KCTC 7965.
Assay [6] relates to Salmonella typhimurium KCTC 1926.
In assay [7] the test system is Pseudomonas aeruginosa KCTC 1637.
In assay [8] the test system is Bacillus subtilis KCTC 3068.
The test system of assay [9] is Staphylococcus aureus KCTC 1621.
Assay [10] concerns Staphylococcus epidermidis KCTC 1917.
Assay [11] has as its system Escherichia coli KCTC 1682.
Assay [12] concerns Staphylococcus epidermidis KCTC 3096.
Assay [13] concerns Trichosporon beigelii KCTC 7707.
The subject of assay [14] is Saccharomyces cerevisiae KCTC 7296.
Assay [15] concerns Bacillus subtilis KCTC 1918.
Assay [16] deals with Candida albicans TIMM 1768.
Assay [17] relates to Escherichia coli DH5alpha.
Assay [18] concerns Saccharomyces cerevisiae FY1679.
Assay [19] concerns Penicillium digitatum PHI-26.
For assay [20], the system named is Staphylococcus aureus NBRC 12732.
The subject of assay [21] is Bacillus megaterium ATCC 19213.
For assay [22], the system named is Staphylococcus epidermidis NBRC 12933.
The test system of assay [23] is Bacillus subtilis NBRC 3513.

Structures are written as SMILES. Converted amounts (≈) assume the structure as drawn. “And” between values parts separate entries of the source, which are not always exact repeats. Equal entries are not always repeated.

Regarding `CC(C)[C@H](NC(=O)[C@H](CS)NC(=O)[C@H](CC(=O)O)NC(=O)CNC(=O)[C@H](CC(N)=O)NC(=O)[C@H](CCCCN)NC(=O)[C@H](CS)NC(=O)[C@H](CCCCN)NC(=O)CNC(=O)CN)C(=O)N[C@@H](CS)C(=O)N[C@@H](CCCN=C(N)N)C(N)=O` [GGKCKNGDCVCR], the MIC in the assay on Beauveria sp. is 17.7 µM (≈ 21.9 µg/mL); in [1], 26 µM (≈ 32.2 µg/mL); in [2], 8.93 µM (≈ 11.1 µg/mL); in the assay with Saccharomyces cerevisiae, not below 52 µM; in assay [3], 10.8 µM (≈ 13.3 µg/mL); with Bacillus sp. DM-1, not below 33.8 µM.
In the case of `CC[C@H](C)[C@H](NC(=O)[C@@H]1CCCN1C(=O)[C@H](CCCN=C(N)N)NC(=O)[C@@H]1CCCN1C(=O)[C@H](Cc1cnc[nH]1)NC(=O)[C@H](CO)NC(=O)[C@@H](NC(=O)[C@@H]1CCCN1C(=O)[C@H](CCCN=C(N)N)NC(=O)[C@@H]1CCCN1C(=O)[C@H](CO)NC(=O)[C@H](Cc1ccc(O)cc1)NC(=O)[C@@H]1CCCN1C(=O)[C@H](CCCN=C(N)N)NC(=O)[C@@H]1CCCN1C(=O)[C@H](CCCCN)NC(=O)CN)[C@@H](C)O)C(=O)N[C@@H](CCCN=C(N)N)C(=O)N[C@H](C(N)=O)C(C)C` [GKPRPYSPRPTSHPRPIRV], the MIC in [4] came out at 0.455 µM (≈ 0.999 µg/mL); against Escherichia coli BL21AI, 29.1 µM (≈ 64 µg/mL).
`CC(C)C[C@H](NC(=O)[C@H](CC(C)C)NC(=O)[C@H](CCCCN)NC(=O)[C@H](CCCCN)NC(=O)[C@H](CC(C)C)NC(=O)[C@H](CC(C)C)NC(=O)[C@H](CCCCN)NC(=O)[C@H](CC(C)C)NC(=O)[C@H](Cc1c[nH]c2ccccc12)NC(=O)[C@H](CCCCN)NC(=O)[C@H](CCCCN)NC(=O)[C@H](CC(C)C)NC(=O)[C@H](CC(C)C)NC(=O)[C@H](CCCCN)NC(=O)[C@H](CCCCN)NC(=O)[C@H](CC(C)C)NC(=O)[C@@H](N)CCCCN)C(=O)N[C@@H](CCCCN)C(N)=O` [KLKKLLKKWLKLLKKLLK]: the MIC in assay [5] worked out at 11.3 µM (≈ 25.6 µg/mL); in assay [6], 4 µM (≈ 9.05 µg/mL); in assay [7] it was 8 µM (≈ 18.1 µg/mL); in assay [8], 4 µM (≈ 9.05 µg/mL); in assay [9], 8 µM (≈ 18.1 µg/mL); in assay [10], 8 µM (≈ 18.1 µg/mL). This compound returned an MIC in [11] of 8 µM (≈ 18.1 µg/mL).
`CC(C)C[C@H](NC(=O)[C@H](CCCCN)NC(=O)[C@H](CCCCN)NC(=O)[C@H](CC(C)C)NC(=O)[C@H](CC(C)C)NC(=O)[C@H](CCCCN)NC(=O)[C@H](CCCCN)NC(=O)[C@H](CC(C)C)NC(=O)[C@H](CC(C)C)NC(=O)[C@@H]1CCCN1C(=O)[C@@H](N)CCCCN)C(N)=O` [KPLLKKLLKKL]: the minimal inhibitory concentration (MIC) in assay [12] is 6.3 µM (≈ 8.32 µg/mL); in [6], 0.4 µM (≈ 0.528 µg/mL); in assay [13], 6.3 µM (≈ 8.32 µg/mL); in assay [14], 12.5 µM (≈ 16.5 µg/mL); in assay [7], 3.1 µM (≈ 4.09 µg/mL); in assay [15], 6.3 µM (≈ 8.32 µg/mL). The MIC in assay [16] came out at 25 µM (≈ 33 µg/mL).
In the case of `CC(=O)N[C@@H](CCCN=C(N)N)C(=O)N[C@@H](CCCCN)C(=O)N[C@@H](CCCCN)C(=O)N[C@@H](Cc1c[nH]c2ccccc12)C(=O)N[C@@H](Cc1ccccc1)C(=O)N[C@@H](Cc1c[nH]c2ccccc12)C(N)=O` [RKKWFW], the MIC in assay [17] was not below 32 µM; in assay [18] it was not below 32 µM; with Candida albicans, 132 µM (≈ 130 µg/mL); in [19] it was 4 µM and 6 µM.
Regarding `CC(C)C[C@H](NC(=O)[C@H](CCCCN)NC(=O)[C@H](CC(C)C)NC(=O)[C@H](CC(C)C)NC(=O)[C@H](Cc1c[nH]c2ccccc12)NC(=O)[C@@H](N)CCCN=C(N)N)C(=O)NCC(=O)N[C@@H](Cc1cnc[nH]1)C(=O)N[C@@H](Cc1cnc[nH]1)C(=O)NCC(=O)N[C@@H](CCCN=C(N)N)C(=O)N[C@@H](C)C(=O)N1CCC[C@H]1C(=O)N1CCC[C@H]1C(=O)O` [RWLLKLGHHGRAPP], the MIC was not below 128 µM in [20], not below 64 µM in assay [21], not below 128 µM in [22] and not below 128 µM in assay [23].
